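Interpolation was linear, between the two tested concentrations surrounding the appropriate level; five concentrations were tested over 48 hours in 96-well plates. At the TGI there is no net growth.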
Legend:
Experiment in all cases: NCI-60 cell line screen, 48 h
CAKI-1 renal = tested on: CAKI-1 renal
MDA-MB-231 breast = tested on: MDA-MB-231 breast
MALME-3M melanoma = tested on: MALME-3M melanoma
OVCAR-8 ovarian = tested on: OVCAR-8 ovarian
KM12 colon = tested on: KM12 colon
OVCAR-4 ovarian = tested on: OVCAR-4 ovarian
NCI-H226 lung = tested on: NCI-H226 lung
MDA-MB-435 = tested on: MDA-MB-435
SK-MEL-5 melanoma = tested on: SK-MEL-5 melanoma
HCC-2998 colon = tested on: HCC-2998 colon
IGROV1 ovarian = tested on: IGROV1 ovarian
HOP-62 NSCLC = tested on: HOP-62 NSCLC
M14 melanoma = tested on: M14 melanoma
NCI-H23 lung = tested on: NCI-H23 lung
SK-MEL-2 melanoma = tested on: SK-MEL-2 melanoma
SR leukemia = tested on: SR leukemia
OVCAR-5 ovarian = tested on: OVCAR-5 ovarian
HL-60(TB) leukemia = tested on: HL-60(TB) leukemia
T-47D breast = tested on: T-47D breast
NCI/ADR-RES ovarian = tested on: NCI/ADR-RES ovarian
HT29 colon = tested on: HT29 colon
UACC-62 melanoma = tested on: UACC-62 melanoma
HOP-92 NSCLC = tested on: HOP-92 NSCLC
CCRF-CEM leukemia = tested on: CCRF-CEM leukemia
RPMI-8226 leukemia = tested on: RPMI-8226 leukemia
SK-OV-3 ovarian = tested on: SK-OV-3 ovarian
U251 CNS = tested on: U251 CNS
LOX IMVI melanoma = tested on: LOX IMVI melanoma
BT-549 breast = tested on: BT-549 breast
RXF 393 renal = tested on: RXF 393 renal
TK-10 renal = tested on: TK-10 renal
EKVX NSCLC = tested on: EKVX NSCLC
SNB-75 CNS = tested on: SNB-75 CNS
A498 renal = tested on: A498 renal
MDA-N = tested on: MDA-N
NCI-H460 lung = tested on: NCI-H460 lung
MCF7 breast = tested on: MCF7 breast
ACHN renal = tested on: ACHN renal
MOLT-4 leukemia = tested on: MOLT-4 leukemia
NCI-H522 lung = tested on: NCI-H522 lung
PC-3 prostate = tested on: PC-3 prostate
OVCAR-3 ovarian = tested on: OVCAR-3 ovarian
HCT-15 colon = tested on: HCT-15 colon
K-562 leukemia = tested on: K-562 leukemia
786-0 renal = tested on: 786-0 renal
COLO 205 colon = tested on: COLO 205 colon
SF-268 CNS = tested on: SF-268 CNS
HCT-116 colon = tested on: HCT-116 colon
A549 NSCLC = tested on: A549 NSCLC
SF-539 CNS = tested on: SF-539 CNS
SW-620 colon = tested on: SW-620 colon
SN12C renal = tested on: SN12C renal
SK-MEL-28 melanoma = tested on: SK-MEL-28 melanoma
UO-31 renal = tested on: UO-31 renal
SNB-19 CNS = tested on: SNB-19 CNS
DU-145 prostate = tested on: DU-145 prostate
HS 578T breast = tested on: HS 578T breast
UACC-257 melanoma = tested on: UACC-257 melanoma
SF-295 CNS = tested on: SF-295 CNS
SNB-78 CNS = tested on: SNB-78 CNS
LXFL 529 NSCLC = tested on: LXFL 529 NSCLC
DMS 273 small cell lung = tested on: DMS 273 small cell lung
DMS 114 small cell lung = tested on: DMS 114 small cell lung
DLD-1 colon = tested on: DLD-1 colon
M19-MEL melanoma = tested on: M19-MEL melanoma
KM20L2 colon = tested on: KM20L2 colon
HOP-18 NSCLC = tested on: HOP-18 NSCLC

CCCCCC(=O)OC[n+]1cccc(-c2c(COC(=O)NC(C)C)c(COC(=O)NC(C)C)c3n2CCC3)c1
TGI (CAKI-1 renal): > 53.9 µM | TGI (MDA-MB-231 breast): > 100 µM | TGI (MALME-3M melanoma): > 100 µM | TGI (OVCAR-8 ovarian): > 100 µM | TGI (KM12 colon): > 100 µM | TGI (OVCAR-4 ovarian): > 100 µM | TGI (NCI-H226 lung): > 100 µM | TGI (MDA-MB-435): > 100 µM | TGI (SK-MEL-5 melanoma): > 100 µM | TGI (HCC-2998 colon): > 100 µM | TGI (IGROV1 ovarian): > 100 µM | TGI (HOP-62 NSCLC): > 100 µM | TGI (M14 melanoma): > 100 µM | TGI (NCI-H23 lung): > 100 µM | TGI (SK-MEL-2 melanoma): 94.7 µM | TGI (SR leukemia): > 73.8 µM | TGI (OVCAR-5 ovarian): > 100 µM | TGI (HL-60(TB) leukemia): > 100 µM | TGI (T-47D breast): > 100 µM | TGI (NCI/ADR-RES ovarian): > 100 µM | TGI (HT29 colon): > 100 µM | TGI (UACC-62 melanoma): 89.2 µM | TGI (HOP-92 NSCLC): 77.2 µM | TGI (CCRF-CEM leukemia): > 61 µM | TGI (RPMI-8226 leukemia): > 100 µM | TGI (SK-OV-3 ovarian): > 100 µM | TGI (U251 CNS): > 100 µM | TGI (LOX IMVI melanoma): > 100 µM | TGI (BT-549 breast): > 100 µM | TGI (RXF 393 renal): > 67.1 µM | TGI (TK-10 renal): > 100 µM | TGI (EKVX NSCLC): > 100 µM | TGI (SNB-75 CNS): > 100 µM | TGI (A498 renal): 37.7 µM | TGI (MDA-N): > 100 µM | TGI (NCI-H460 lung): > 100 µM | TGI (MCF7 breast): > 100 µM | TGI (ACHN renal): > 100 µM | TGI (MOLT-4 leukemia): > 71.1 µM | TGI (NCI-H522 lung): 25.2 µM | TGI (PC-3 prostate): > 100 µM | TGI (OVCAR-3 ovarian): > 100 µM | TGI (HCT-15 colon): > 100 µM | TGI (K-562 leukemia): > 100 µM | TGI (786-0 renal): > 100 µM | TGI (COLO 205 colon): > 100 µM | TGI (SF-268 CNS): > 100 µM | TGI (HCT-116 colon): > 100 µM | TGI (A549 NSCLC): > 100 µM | TGI (SF-539 CNS): > 72.5 µM | TGI (SW-620 colon): > 100 µM | TGI (SN12C renal): > 100 µM | TGI (SK-MEL-28 melanoma): > 100 µM | TGI (UO-31 renal): > 100 µM | TGI (SNB-19 CNS): > 100 µM | TGI (DU-145 prostate): > 100 µM | TGI (HS 578T breast): > 100 µM | TGI (UACC-257 melanoma): > 100 µM | TGI (SF-295 CNS): > 100 µM

Cc1nc2ccccc2n1Cc1nnc(-c2ccccc2)o1
TGI (MDA-MB-231 breast): > 100 µM | TGI (MALME-3M melanoma): > 100 µM | TGI (OVCAR-8 ovarian): > 100 µM | TGI (KM12 colon): > 100 µM | TGI (MDA-MB-435): 0.692 µM | TGI (SK-MEL-5 melanoma): > 100 µM | TGI (HCC-2998 colon): > 100 µM | TGI (IGROV1 ovarian): > 100 µM | TGI (HOP-62 NSCLC): > 100 µM | TGI (M14 melanoma): > 100 µM | TGI (NCI-H23 lung): > 100 µM | TGI (SK-MEL-2 melanoma): > 100 µM | TGI (SR leukemia): > 100 µM | TGI (OVCAR-5 ovarian): > 100 µM | TGI (HL-60(TB) leukemia): > 100 µM | TGI (T-47D breast): > 100 µM | TGI (NCI/ADR-RES ovarian): > 100 µM | TGI (HT29 colon): > 100 µM | TGI (UACC-62 melanoma): > 100 µM | TGI (HOP-92 NSCLC): > 100 µM | TGI (CCRF-CEM leukemia): > 100 µM | TGI (RPMI-8226 leukemia): > 100 µM | TGI (SK-OV-3 ovarian): > 100 µM | TGI (U251 CNS): > 100 µM | TGI (LOX IMVI melanoma): > 100 µM | TGI (BT-549 breast): > 100 µM | TGI (RXF 393 renal): > 100 µM | TGI (TK-10 renal): > 100 µM | TGI (EKVX NSCLC): > 100 µM | TGI (SNB-75 CNS): > 100 µM | TGI (A498 renal): > 100 µM | TGI (MDA-N): > 100 µM | TGI (NCI-H460 lung): > 100 µM | TGI (MCF7 breast): > 100 µM | TGI (ACHN renal): > 100 µM | TGI (MOLT-4 leukemia): > 100 µM | TGI (NCI-H522 lung): > 100 µM | TGI (PC-3 prostate): > 100 µM | TGI (OVCAR-3 ovarian): > 100 µM | TGI (HCT-15 colon): > 100 µM | TGI (K-562 leukemia): > 100 µM | TGI (786-0 renal): > 100 µM | TGI (COLO 205 colon): > 100 µM | TGI (SF-268 CNS): > 100 µM | TGI (HCT-116 colon): > 100 µM | TGI (A549 NSCLC): > 100 µM | TGI (SF-539 CNS): > 100 µM | TGI (SW-620 colon): > 100 µM | TGI (SN12C renal): > 100 µM | TGI (SK-MEL-28 melanoma): > 100 µM | TGI (UO-31 renal): > 100 µM | TGI (SNB-19 CNS): > 100 µM | TGI (DU-145 prostate): > 100 µM | TGI (HS 578T breast): > 100 µM | TGI (UACC-257 melanoma): > 100 µM | TGI (SF-295 CNS): > 100 µM

Cc1ccccc1NC(=O)C1C(=O)N(c2ccccc2C)C(=O)/C1=N\NC(N)=O (stereo not drawn)
TGI (CAKI-1 renal): > 100 µM | TGI (SNB-78 CNS): > 100 µM | TGI (LXFL 529 NSCLC): > 100 µM | TGI (MALME-3M melanoma): > 100 µM | TGI (OVCAR-8 ovarian): > 100 µM | TGI (KM12 colon): > 100 µM | TGI (OVCAR-4 ovarian): > 100 µM | TGI (SK-MEL-5 melanoma): > 100 µM | TGI (HCC-2998 colon): > 100 µM | TGI (IGROV1 ovarian): > 100 µM | TGI (HOP-62 NSCLC): > 100 µM | TGI (M14 melanoma): > 100 µM | TGI (NCI-H23 lung): > 100 µM | TGI (SK-MEL-2 melanoma): > 100 µM | TGI (SR leukemia): > 100 µM | TGI (DMS 273 small cell lung): > 100 µM | TGI (OVCAR-5 ovarian): > 100 µM | TGI (HL-60(TB) leukemia): > 100 µM | TGI (HT29 colon): > 100 µM | TGI (DMS 114 small cell lung): > 100 µM | TGI (UACC-62 melanoma): > 100 µM | TGI (HOP-92 NSCLC): > 100 µM | TGI (CCRF-CEM leukemia): > 100 µM | TGI (DLD-1 colon): > 100 µM | TGI (U251 CNS): > 100 µM | TGI (RXF 393 renal): > 100 µM | TGI (TK-10 renal): > 100 µM | TGI (EKVX NSCLC): > 100 µM | TGI (SNB-75 CNS): 83.7 µM | TGI (A498 renal): > 100 µM | TGI (NCI-H460 lung): > 100 µM | TGI (ACHN renal): > 100 µM | TGI (M19-MEL melanoma): > 100 µM | TGI (MOLT-4 leukemia): > 100 µM | TGI (NCI-H522 lung): > 100 µM | TGI (OVCAR-3 ovarian): > 100 µM | TGI (HCT-15 colon): > 100 µM | TGI (K-562 leukemia): > 100 µM | TGI (786-0 renal): > 100 µM | TGI (COLO 205 colon): > 100 µM | TGI (SF-268 CNS): > 100 µM | TGI (HCT-116 colon): > 100 µM | TGI (A549 NSCLC): > 100 µM | TGI (KM20L2 colon): > 100 µM | TGI (SF-539 CNS): > 100 µM | TGI (SW-620 colon): > 100 µM | TGI (SN12C renal): > 100 µM | TGI (SK-MEL-28 melanoma): > 100 µM | TGI (UO-31 renal): > 100 µM | TGI (SNB-19 CNS): > 100 µM | TGI (HOP-18 NSCLC): > 100 µM | TGI (UACC-257 melanoma): > 100 µM | TGI (SF-295 CNS): > 100 µM

— PubChem BioAssay (NCI)
